Structures can show the parent of a compound that is named as a salt. Where two headings read alike, the source gives them in different places.
Legend:
PC12-HS cells [1] = test: Evaluation A: neurocyte (cell)-growth-promoting action, ALAMAR BLUE; format: cell-based, rat
Method: Then, the effects of test samples were judged as follows:
The relative value of 140 to 199: Equivalent effect to that of NK-4, symbol (∘); The relative value of 200 or higher: Stronger effect than that of NK-4, symbol ([…]). • The results are in Table 6.
The relative fluorescent intensity of each well was determined by using the fluorescent intensity of each well with cells, which had been cultured by admixing with D-MEM medium containing 10% by volume of FBS without any of the compounds, and the intensity of the resulting culture was regarded as 100%. The results are expressed as cell survival percentages (%) in Table 9. […]
The test was conducted twice for each test sample in a triplicate manner and the data were averaged.
Seven compounds as in Table 17, NK-234, NK-26, NK-9815, NK-9694, NK-28 and NK-147 as well as NK-4, were each dissolved in DMSO to give a concentration of 5 mg/ml. […] The test was conducted twice for each test sample in a triplicate manner and the data were averaged.

PC12-HS cells [2] = test: Evaluation B: neurite-outgrowth action in presence of NGF; format: cell-based, rat
[3] = Hydroxyl radical-scavenging activity, ESR (Fenton reaction)
Method: Stock solutions, prepared by dissolving NK-4, NK-19, NK-53, NK-100, and NK-557 in DMSO, were respectively diluted with refined water to give concentrations of 3-folds higher than those in Table 14 and used as test sample solutions. As a positive control, a neuroprotectant, “edaravone”, commercialized as “RADICUT®” containing 3-methyl-1-phenyl-2-pyrazoline-5-one as an effective ingredient by Mitsubishi Tanabe Pharma Corporation, Osaka, Japan, was diluted with refined water to give a concentration of 3-folds higher than that in Table 14 for use. To 50 μl of refined water, 50 μl of 89 mM DMPO ([…]) commercialized by Dojindo Laboratories, Kumamoto, Japan, 50 μl of the test sample solution, and 50 μl of an aqueous solution containing 1 mM hydrogen peroxide, 1 mM FeSO4, and 1 mM DTPA, commercialized by Wako Pure Chemical Industries, Osaka, Japan, were added, mixed for 10 seconds using a vortex mixer and allowed to react in an incubator controlled at 37° for 40 seconds. After 30 seconds from completion of the reaction, the resulting reaction mixture was subjected to ESR measurement. A control solution was prepared by the same method as above except for using 50 μl of a diluted edaravone solution as a substitute for the test sample solution, and subjected to ESR measurement.
The reaction mixture for measuring hydroxyl or peroxyl radicals was poured into a flat quartz cell for ESR, set to “FREE RADICAL MONITOR JES-FR30”, an ESR apparatus commercialized by JOEL Ltd., Tokyo, Japan, and ESR was measured according to manual manner. The residual ratio of peroxyl radical (%) was determined as a relative value by defining the ESR value, obtained by using 0.1 M phosphate buffer as a substitute of the test sample solution, as 100. The results are in Tables 14 and 15. […] Therefore, the IC50 of edaravone was determined by another test using its higher concentration, and the result is also shown in Table 14. The conditions of the ESR measurement were set as follows: […]

PC12-HS cells [4] = tested on: PC12-HS cells; parameters: suppression of cytotoxicity by 6-hydroxy dopa (in words): dose or concentration left out as unconfirmed
Method: 6-Hydroxy dopa was used as a cytotoxic agent. Similarly as in Experiment 1, PC12-HS cells, which had been cultured in D-MEM medium supplemented with 10 v/v % FBS, were inoculated to 96-well microplates by 2×10^4/100 μl/well. […] Thereafter, the cells were fixed with 10% glutaraldehyde and the absorbance at 650 nm was measured by conventional dye-uptake method using methylene blue.

[5] = target: T1, acetylcholine esterase (AchE) (Rattus norvegicus, UniProt P37136); test: biochemical; format: biochemical
T1 sequence (P37136 32-614): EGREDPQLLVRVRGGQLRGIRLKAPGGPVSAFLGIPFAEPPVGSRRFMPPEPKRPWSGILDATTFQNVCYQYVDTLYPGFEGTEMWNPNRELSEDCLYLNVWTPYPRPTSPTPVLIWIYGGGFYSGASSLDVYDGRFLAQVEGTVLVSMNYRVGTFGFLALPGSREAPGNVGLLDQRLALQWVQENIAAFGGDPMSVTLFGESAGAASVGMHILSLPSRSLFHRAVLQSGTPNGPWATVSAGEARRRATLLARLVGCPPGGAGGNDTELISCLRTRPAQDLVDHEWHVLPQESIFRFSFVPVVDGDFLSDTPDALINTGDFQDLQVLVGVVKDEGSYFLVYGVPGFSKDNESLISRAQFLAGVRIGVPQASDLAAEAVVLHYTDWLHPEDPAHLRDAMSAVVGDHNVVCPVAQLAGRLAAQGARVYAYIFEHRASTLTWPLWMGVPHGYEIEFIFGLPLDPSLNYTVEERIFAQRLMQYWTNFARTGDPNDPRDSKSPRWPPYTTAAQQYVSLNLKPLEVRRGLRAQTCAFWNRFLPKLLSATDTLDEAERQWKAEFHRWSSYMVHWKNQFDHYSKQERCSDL

brain ischemia rat [6] = test: Brain ischemia (cerebral infarction model) rat: behavioral score; format: in vivo; parameters: Behavioral score: scale not given here; settings: for Behavioral score: embolus rat, caudal vein
Method: Male SD rats, seven- to eight-weeks of age and 280 to 330 g body weight, commercialized by Charles River Laboratories Japan Inc., Kanagawa, Japan, were allocated randomly into seven groups, consisting of five to seven rats in each group. Among the seven groups, five groups were subjected to the following surgery as test groups: Rats in the test groups were subcutaneously administered with 0.3 mg/kg body weight of atropine, commercialized by Fuso Pharmaceutical industries, Osaka, Japan. Successively, each rat was anesthetized by administrating 600 mg/kg body weight of urethane, commercialized by Sigma-Aldrich Co., MO, USA, and 60 mg/kg-weight of […], commercialized by Sigma-Aldrich Co., MO, USA, into the peritoneal cavity, and fixed to a fixator under voluntary breathing conditions. The right carotid artery bifurcation was exposed by median incision of the neck without damaging vagus nerve. The common carotid artery and external carotid artery around the right carotid artery bifurcation were exfoliated from surrounding connective tissue and wired respectively using “NESCOSUTURE”, a 6-0 nylon string commercialized by Alfresa Pharma Corporation, Osaka, Japan. Then, the internal carotid artery was tied with the 6-0 nylon string for fixation after insertion of an obturator. Successively, the common carotid artery was incised and a silicon-coated obturator, prepared by a 4-0 nylon string, commercialized by Doccol Corp., CA, USA, was inserted from the common carotid artery into the internal carotid artery at a distance of about 16 mm, and clipped to the common carotid artery (see, for example, Koizumi et al., Cerebral stroke, Vol. 8, No. 1, pp. 1-8 (1986)). By the method, the silicon-coated tip of obturator was inserted through the right carotid artery bifurcation to frontal cerebral artery at a distance of about 2 mm and obstructs the inlet of the medial cerebral artery. After two hours occlusion of the medial cerebral artery while keeping the rat on an isothermal pad controlled at a temperature of 37° C., blood was allowed to reperfuse by withdrawing the obturator. Then, the internal carotid artery was tied near the carotid artery bifurcation for preventing the bleeding from the incised part of the common carotid artery. In the model, the blood was reperfused through the left carotid artery, vertebral artery, basilar artery, frontal and backward communication artery because the right carotid artery was clipped.
NK-4, NK-19, NK-53, NK-100, and NK-557, used in the test, were respectively dissolved in DMSO (product No. “D8418”, commercialized by Sigma-Aldrich Co., MO, USA) to give a concentration of 5 mg/ml and filtrated using “MILLEX-LG SLLG025SS”, a DMSO-resistant membrane filter commercialized by Millipore, MA, USA. Stock […], and then 4 ml/kg body weight of any of the resulting diluted solutions was administered ([…]) to five test groups (test groups 1 to 5) consisting of five or seven rats, through their caudal veins at both after one hour from the occlusion of middle cerebral artery and immediately after initiating reperfusion. After 24 hours from the reperfusion of blood, behavioral and histological evaluations of rats were carried out according to the following procedures: As a control group 1, five rats in one group out of the remaining two groups were subjected to the same surgery as the rats in the test groups 1 to 5, and administered with 4 ml/kg body weight of PBS free of any of the compounds through their caudal veins at both after one hour of the medial cerebral artery occlusion and immediately after the start of reperfusion. As the control group 2, six rats in the remaining one group were subjected to a sham surgery, in which common, external, and internal carotid arteries were clipped and then reperfused their blood without inserting the obturator to each medial cerebral artery. […]

brain ischemia rat [7] = test: Brain ischemia (cerebral infarction model) rat: size/volume of cerebral infarction region (TTC); format: in vivo; settings: for Volume of cerebral infarction region (mm^3): embolus rat, caudal vein
APP Tg mouse [8] = test: Passive avoidance test, APP transgenic mouse; format: in vivo; settings: dose 200 μg/kg body weight, five times a week for 12 weeks
APP Tg mouse [9] = test: Water maze test, APP transgenic mouse; format: in vivo; settings: dose 200 μg/kg body weight, time required for arriving the platform
[10] = compound concentration 25 ng/ml
[11] = compound concentration 80 ng/ml
[12] = compound concentration 400 ng/ml
[13] = compound concentration 2000 ng/ml
[14] = compound concentration 10000 ng/ml
[15] = concentration of compound 3.13 μg/ml
[16] = concentration of compound 6.25 μg/ml
[17] = concentration of compound 12.5 μg/ml
[18] = Experiment 13, cerebral-infarction-model rat, administered through caudal vein

SMILES: CCCCCCN1C=CC(=CC=C(C=Cc2cc[n+](CCCCCC)c3ccccc23)c2cc[n+](CCCCCC)c3ccccc23)c2ccccc21.[I-].[I-] [NK-9694]
- Action of enhancing cell growth (%) (PC12-HS cells [1]; [10]): 269 ± 17%
- Action of enhancing cell growth (%) (PC12-HS cells [1]; compound concentration 50 ng/ml): 123 ± 88%
- Action of enhancing cell growth (%) (PC12-HS cells [1]; compound concentration 100 ng/ml): 402 ± 111%
- Action of enhancing cell growth (%) (PC12-HS cells [1]; compound concentration 200 ng/ml): 320 ± 36%
- Action on neurite outgrowth (%) (PC12-HS cells [2]; [11]): 45 ± 8%
- Action on neurite outgrowth (%) (PC12-HS cells [2]; [12]): 55 ± 14%
- Action on neurite outgrowth (%) (PC12-HS cells [2]; [13]): 38 ± 12%
- Action on neurite outgrowth (%) (PC12-HS cells [2]; [14]): 10< %
- IC50 (μg/ml) of hydroxyl radical-scavenging activity [3]: 3.4 µg/mL
- suppression of cytotoxicity by 6-hydroxy dopa (in words) (PC12-HS cells [4]; 6-hydroxy dopa, 24 hours): significantly suppressed
- Survival-cell percentage (%) (PC12-HS cells [4]; 6-hydroxy dopa, 24 hours, compound 0.83 ng/ml): 62 ± 1%
- Survival-cell percentage (%) (PC12-HS cells [4]; 6-hydroxy dopa, 24 hours, compound 3.3 ng/ml): 68 ± 2 %
- Survival-cell percentage (%) (PC12-HS cells [4]; 6-hydroxy dopa, 24 hours, compound 13 ng/ml): 67 ± 0 %
- Survival-cell percentage (%) (PC12-HS cells [4]; 6-hydroxy dopa, 24 hours, compound 50 ng/ml): 62 ± 3%
- Survival-cell percentage (%) (PC12-HS cells [4]; 6-hydroxy dopa, 24 hours, compound 200 ng/ml): 47 ± 1%
- Survival-cell percentage (%) (PC12-HS cells [4]; 6-hydroxy dopa, 24 hours, compound 800 ng/ml): 42 ± 1%

SMILES: CCCCCN1C=CC(=CC=C(C=Cc2cc[n+](CCCCC)c3ccccc23)c2cc[n+](CCCCC)c3ccccc23)c2ccccc21.[I-].[I-] [NK-9815]
- Action of enhancing cell growth (%) (PC12-HS cells [1]; [10]): 304 ± 26%
- Action on neurite outgrowth (%) (PC12-HS cells [2]; [11]): 68 ± 12%
- Action on neurite outgrowth (%) (PC12-HS cells [2]; [12]): 62 ± 12%
- Action on neurite outgrowth (%) (PC12-HS cells [2]; [13]): 56 ± 2%
- Action on neurite outgrowth (%) (PC12-HS cells [2]; [14]): 11 ± 2%
- Residual ratio of AchE activity (%) ([5]; concentration of compound 0.78 μg/ml): 82 ± 2%
- Residual ratio of AchE activity (%) ([5]; concentration of compound 1.56 μg/ml): 98 ± 24%
- Residual ratio of AchE activity (%) [5, 15]: 93 ± 36%
- Residual ratio of AchE activity (%) [5, 16]: 94 ± 16%
- Residual ratio of AchE activity (%) [5, 17]: 56 ± 7 %
- Residual ratio of AchE activity (%) ([5]; concentration of compound 25 μg/ml): 41 ± 14 %
- Residual ratio of AchE activity (%) ([5]; concentration of compound 50 μg/ml): 24 ± 4 %
- IC50 ([5]; concentration that suppresses AchE activity by 50%, calculated from residual ratios): 17.3 µg/mL

SMILES: CC1=NN(c2ccccc2)C(=O)C1 [Edaravone, 3-methyl-1-phenyl-2-pyrazoline-5-one, reference compound]
- behavioral score (in words) (brain ischemia rat [6]; [18]): significantly improved
- Behavioral score (brain ischemia rat [6]; dose 0.3 mg per kg body weight): 4.7 ± 0.4
- Behavioral score (brain ischemia rat [6]; dose 1 mg per kg body weight): 3.7 ± 0.5
- Behavioral score (brain ischemia rat [6]; dose 3 mg per kg body weight): 4.8 ± 0.2
- increment of the volume of cerebral infarction region (in words) (brain ischemia rat [7]; [18]): not significantly suppressed
- Volume of cerebral infarction region (mm^3) (brain ischemia rat [7]; dose 0.3 mg per kg body weight): 179 ± 27 mm^3
- Volume of cerebral infarction region (mm^3) (brain ischemia rat [7]; dose 1 mg per kg body weight): 152 ± 28 mm^3
- Volume of cerebral infarction region (mm^3) (brain ischemia rat [7]; dose 3 mg per kg body weight): 183 ± 16 mm^3
- IC50 (μg/ml) of hydroxyl radical-scavenging activity [3]: 148.0 µg/mL
- Residual ratio of hydroxyl radical (%) ([3]; concentration of compound 2.5 μg/ml): 100%
- Residual ratio of hydroxyl radical (%) [3, 15]: 100%
- Residual ratio of hydroxyl radical (%) [3, 16]: 100%
- Residual ratio of hydroxyl radical (%) [3, 17]: 100%
- suppression of cytotoxicity by 6-hydroxy dopa (in words) (PC12-HS cells [4]): can not suppress the cytotoxicity

SMILES: COc1cc2c(cc1OC)C(=O)C(CC1CCN(Cc3ccccc3)CC1)C2 (stereo not drawn) [Donepezil HCl]
- Passive avoidance reaction (APP Tg mouse [8]): 200 ± 61 s
- Water maze test 1st day (APP Tg mouse [9]; 1st day): 120 ± 0
- Water maze test 2nd day (APP Tg mouse [9]; 2nd day): 77 ± 19
- Water maze test 3rd day (APP Tg mouse [9]; 3rd day): 53 ± 13
- Water maze test 4th day (APP Tg mouse [9]; 4th day): 62 ± 16

From patent US20120035187A1 (priority 2009, published 2012)
